Test results from US20060223879A1, “Non-steroidal farnesoid x receptor modulators” (priority 2002, published 2006).
Where two headings read alike, the source gives them in different places.

Molecular target: T1, FXR (Homo sapiens, UniProt Q96RI1)
T1 construct: using a full length FXR on a natural response element; expressed in transfected cells
T1 sequence (Q96RI1 1-486): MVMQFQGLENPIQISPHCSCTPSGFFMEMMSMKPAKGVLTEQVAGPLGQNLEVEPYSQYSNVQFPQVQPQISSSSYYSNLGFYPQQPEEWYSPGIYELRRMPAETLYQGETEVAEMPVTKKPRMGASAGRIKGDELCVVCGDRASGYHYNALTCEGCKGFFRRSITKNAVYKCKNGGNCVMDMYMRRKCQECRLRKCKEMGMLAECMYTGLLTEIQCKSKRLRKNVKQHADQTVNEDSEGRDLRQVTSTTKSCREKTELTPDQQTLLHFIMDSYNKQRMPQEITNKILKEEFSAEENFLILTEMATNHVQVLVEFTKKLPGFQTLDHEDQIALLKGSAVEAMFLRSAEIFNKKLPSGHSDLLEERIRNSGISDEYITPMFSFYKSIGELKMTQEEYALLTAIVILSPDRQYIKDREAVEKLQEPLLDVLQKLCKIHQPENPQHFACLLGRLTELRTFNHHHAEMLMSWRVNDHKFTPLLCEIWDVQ
Experiment: cell-based transcription assay, FXR responsive promoter linked to a luciferase reporter
Design: RE: scale not given here
Details: for EC50: FXR activation, read-out: EC50; for EC50 / FXR activation (in words): cell-based reporter assay; for RE: RE not defined in the source
Outline: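 Cells co-transfected with full-length FXR and a luciferase reporter carrying a natural hormone response element on a minimal promoter.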

Question: For `COC(=O)/C=C/c1cccc(N(Cc2ccc(-c3ccc(F)c(F)c3)cc2)C(=O)NC(C)C)c1` [Compound 215], which EC50 (Tables 1-15) is on record?
Answer: 8180 nM

Question: And the RE (Tables 1-15)?
Answer: 0.23

Question: With `COC(=O)/C=C/c1cccc(N(Cc2ccc(-c3ccc(SC)cc3)cc2)C(=O)C(C)C)c1` [Compound 216] as the compound, how does the EC50 (Tables 1-15) read?
Answer: 51 nM

Question: And the RE (Tables 1-15)?
Answer: 0.98

Question: What about the “FXR activation (in words)” value of the same compound?
Answer: excellent activity

Question: What does the source list for `COC(=O)/C=C/c1cccc(N(Cc2ccc(-c3ccc(SC)cc3)cc2)C(=O)NC(C)C)c1` [Compound 217]?
Answer: EC50 (Tables 1-15): 178 nM; RE (Tables 1-15): 0.23

Question: How did the EC50 (Tables 1-15) turn out when `COC(=O)/C=C/c1cccc(N(Cc2ccc(-c3ccccc3OC)cc2)C(=O)C2CCCCC2)c1` [Compound 218] was run?
Answer: 399 nM

Question: And the RE (Tables 1-15)?
Answer: 0.40

Question: With `COC(=O)/C=C/c1cccc(N(Cc2ccc(-c3ccccc3OC)cc2)C(=O)C(C)C)c1` [Compound 219] as the compound, how does the EC50 (Tables 1-15) read?
Answer: 377 nM

Question: What about the RE (Tables 1-15) of the same compound?
Answer: 0.28

Question: How did the EC50 (Tables 1-15) turn out when `COC(=O)/C=C/c1cccc(N(Cc2ccc(-c3ccccc3OC)cc2)C(=O)NC(C)C)c1` [Compound 220] was run?
Answer: 4010 nM

Question: What about the RE (Tables 1-15) of the same compound?
Answer: 0.09

Question: With `COC(=O)/C=C/c1cccc(N(Cc2ccc(-c3cc(Cl)cc(Cl)c3)cc2)C(=O)C(C)C)c1` [Compound 221] as the compound, how does the EC50 (Tables 1-15) read?
Answer: 561 nM

Question: And the RE (Tables 1-15)?
Answer: 0.54

Question: How did the EC50 (Tables 1-15) turn out when `COC(=O)/C=C/c1cccc(N(Cc2ccc(-c3cc(Cl)cc(Cl)c3)cc2)C(=O)NC(C)C)c1` [Compound 222] was run?
Answer: > 10000 nM

Question: And the RE (Tables 1-15)?
Answer: 0.10

Question: With `COC(=O)/C=C/c1cccc(N(Cc2ccc(-c3cccc(OC)c3)cc2)C(=O)C(C)C)c1` [Compound 224] as the compound, how does the EC50 (Tables 1-15) read?
Answer: 72 nM

Question: And the “FXR activation (in words)” value?
Answer: excellent activity

Question: How did the EC50 (Tables 1-15) turn out when `COC(=O)/C=C/c1cccc(N(Cc2ccc(-c3cccc(OC)c3)cc2)C(=O)NC(C)C)c1` [Compound 225] was run?
Answer: 1370 nM

Question: What about the RE (Tables 1-15) of the same compound?
Answer: 0.41

Question: What does the source list for `CCOc1cccc(-c2ccc(CN(C(=O)C3CCCCC3)c3cccc(/C=C/C(=O)OC)c3)cc2)c1` [Compound 226]?
Answer: EC50 (Tables 1-15): 147 nM; RE (Tables 1-15): 1.37

Question: With `CCOc1cccc(-c2ccc(CN(C(=O)C(C)C)c3cccc(/C=C/C(=O)OC)c3)cc2)c1` [Compound 227] as the compound, how does the EC50 (Tables 1-15) read?
Answer: 173 nM

Question: And the RE (Tables 1-15)?
Answer: 1.03

Question: Which EC50 (Tables 1-15) does the source give for `CCOc1cccc(-c2ccc(CN(C(=O)NC(C)C)c3cccc(/C=C/C(=O)OC)c3)cc2)c1` [Compound 228] here?
Answer: 2350 nM

Question: What about the RE (Tables 1-15) of the same compound?
Answer: 0.33

Question: Which results are given for `COC(=O)/C=C/c1cccc(N(Cc2ccc(-c3ccc(OC)cc3)cc2)C(=O)C2CCCCC2)c1` [Compound 229]?
Answer: EC50 (Tables 1-15): 89 nM; RE (Tables 1-15): 1.71; FXR activation (in words): excellent activity

Question: How did the EC50 (Tables 1-15) turn out when `COC(=O)/C=C/c1cccc(N(Cc2ccc(-c3ccc(OC)cc3)cc2)C(=O)C(C)C)c1` [Compound 230] was run?
Answer: 97 nM

Question: What about the “FXR activation (in words)” value of the same compound?
Answer: excellent activity

Question: What does the source list for `COC(=O)/C=C/c1cccc(N(Cc2ccc(-c3ccc(OC)cc3)cc2)C(=O)NC(C)C)c1` [Compound 231]?
Answer: EC50 (Tables 1-15): 144 nM; RE (Tables 1-15): 1.16

Question: Which EC50 (Tables 1-15) does the source give for `COC(=O)/C=C/c1cccc(N(Cc2ccc(-c3cccc(Cl)c3)cc2)C(=O)C2CCCCC2)c1` [Compound 232] here?
Answer: 94 nM

Question: What about the RE (Tables 1-15) of the same compound?
Answer: 1.56

Question: And the “FXR activation (in words)” value?
Answer: excellent activity

Question: `COC(=O)/C=C/c1cccc(N(Cc2ccc(-c3cccc(Cl)c3)cc2)C(=O)C(C)C)c1` [Compound 233] was tested. Which “FXR activation (in words)” value did it give?
Answer: excellent activity

Question: For `COC(=O)/C=C/c1cccc(N(Cc2ccc(-c3cccc(Cl)c3)cc2)C(=O)NC(C)C)c1` [Compound 234], which EC50 (Tables 1-15) is on record?
Answer: 1400 nM

Question: What about the RE (Tables 1-15) of the same compound?
Answer: 0.49

Question: How did the EC50 (Tables 1-15) turn out when `COC(=O)/C=C/c1cccc(N(Cc2ccc(-c3ccc(C)cc3)cc2)C(=O)C2CCCCC2)c1` [Compound 235] was run?
Answer: 26 nM

Question: And the RE (Tables 1-15)?
Answer: 1.38

Question: And the “FXR activation (in words)” value?
Answer: excellent activity

Question: Which EC50 (Tables 1-15) does the source give for `COC(=O)/C=C/c1cccc(N(Cc2ccc(-c3ccc(C)cc3)cc2)C(=O)C(C)C)c1` [Compound 236] here?
Answer: 118 nM

Question: What about the RE (Tables 1-15) of the same compound?
Answer: 1.48

Question: What about the “FXR activation (in words)” value of the same compound?
Answer: excellent activity

Question: `COC(=O)/C=C/c1cccc(N(Cc2ccc(-c3ccc(C)cc3)cc2)C(=O)NC(C)C)c1` [Compound 237] was tested. Which EC50 (Tables 1-15) did it give?
Answer: 449 nM

Question: What about the RE (Tables 1-15) of the same compound?
Answer: 0.80

Question: How did the EC50 (Tables 1-15) turn out when `COC(=O)/C=C/c1cccc(N(Cc2ccc(-c3cccc(C)c3)cc2)C(=O)C2CCCCC2)c1` [Compound 238] was run?
Answer: 109 nM

Question: What about the RE (Tables 1-15) of the same compound?
Answer: 1.43

Question: And the “FXR activation (in words)” value?
Answer: excellent activity

Question: How did the EC50 (Tables 1-15) turn out when `COC(=O)/C=C/c1cccc(N(Cc2ccc(-c3cccc(C)c3)cc2)C(=O)C(C)C)c1` [Compound 239] was run?
Answer: 163 nM

Question: And the RE (Tables 1-15)?
Answer: 1.09

Question: Which EC50 (Tables 1-15) does the source give for `COC(=O)/C=C/c1cccc(N(Cc2ccc(-c3cccc(C)c3)cc2)C(=O)NC(C)C)c1` [Compound 240] here?
Answer: 1330 nM

Question: What about the RE (Tables 1-15) of the same compound?
Answer: 0.53

Question: Which EC50 (Tables 1-15) does the source give for `COC(=O)/C=C/c1cccc(N(Cc2ccc(-c3cc(Cl)ccc3OC)cc2)C(=O)C2CCCCC2)c1` [Compound 241] here?
Answer: 233 nM

Question: What about the RE (Tables 1-15) of the same compound?
Answer: 1.16

Question: How did the EC50 (Tables 1-15) turn out when `COC(=O)/C=C/c1cccc(N(Cc2ccc(-c3cc(Cl)ccc3OC)cc2)C(=O)C(C)C)c1` [Compound 242] was run?
Answer: 226 nM

Question: And the RE (Tables 1-15)?
Answer: 0.79

Question: Which EC50 (Tables 1-15) does the source give for `COC(=O)/C=C/c1cccc(N(Cc2ccc(-c3cc(Cl)ccc3OC)cc2)C(=O)NC(C)C)c1` [Compound 243] here?
Answer: 3080 nM

Question: And the RE (Tables 1-15)?
Answer: 0.17

Question: For `COC(=O)/C=C/c1cccc(N(Cc2ccc(-c3ccc4c(c3)OCO4)cc2)C(=O)C2CCCCC2)c1` [Compound 244], which EC50 is on record?
Answer: 38 nM

Question: What about the RE (Tables 1-15) of the same compound?
Answer: 1.90

Question: And the “FXR activation (in words)” value?
Answer: excellent activity

Question: Which results are given for `COC(=O)/C=C/c1cccc(N(Cc2ccc(-c3ccc4c(c3)OCO4)cc2)C(=O)C(C)C)c1` [Compound 245]?
Answer: EC50 (Tables 1-15): 19 nM; RE (Tables 1-15): 1.25; FXR activation (in words): excellent activity

Question: `COC(=O)/C=C/c1cccc(N(Cc2ccc(-c3ccc4c(c3)OCO4)cc2)C(=O)NC(C)C)c1` [Compound 246] was tested. Which EC50 (Tables 1-15) did it give?
Answer: 96 nM

Question: What about the RE (Tables 1-15) of the same compound?
Answer: 1.51

Question: And the “FXR activation (in words)” value?
Answer: excellent activity

Question: How did the EC50 (Tables 1-15) turn out when `COC(=O)/C=C/c1cccc(N(Cc2ccc(-c3ccc(F)c(Cl)c3)cc2)C(=O)C2CCCCC2)c1` [Compound 247] was run?
Answer: 66 nM

Question: What about the RE (Tables 1-15) of the same compound?
Answer: 1.67

Question: And the “FXR activation (in words)” value?
Answer: excellent activity

Question: Which EC50 (Tables 1-15) does the source give for `COC(=O)/C=C/c1cccc(N(Cc2ccc(-c3ccc(F)c(Cl)c3)cc2)C(=O)C(C)C)c1` [Compound 248] here?
Answer: 129 nM

Question: What about the RE (Tables 1-15) of the same compound?
Answer: 1.64

Question: `COC(=O)/C=C/c1cccc(N(Cc2ccc(-c3ccc(F)c(Cl)c3)cc2)C(=O)NC(C)C)c1` [Compound 249] was tested. Which EC50 (Tables 1-15) did it give?
Answer: 3050 nM

Question: And the RE (Tables 1-15)?
Answer: 0.41

Question: With `COC(=O)/C=C/c1cccc(N(Cc2ccc(-c3ccc(OC(F)(F)F)cc3)cc2)C(=O)C2CCCCC2)c1` [Compound 250] as the compound, how does the EC50 (Tables 1-15) read?
Answer: 264 nM

Question: What about the RE (Tables 1-15) of the same compound?
Answer: 1.04

Question: Which results are given for `COC(=O)/C=C/c1cccc(N(Cc2ccc(-c3ccc(OC(F)(F)F)cc3)cc2)C(=O)C(C)C)c1` [Compound 251]?
Answer: EC50 (Tables 1-15): 219 nM; RE (Tables 1-15): 0.78

Question: Which results are given for `COC(=O)/C=C/c1cccc(N(Cc2ccc(-c3ccc(OC(F)(F)F)cc3)cc2)C(=O)NC(C)C)c1` [Compound 252]?
Answer: EC50 (Tables 1-15): 7530 nM; RE (Tables 1-15): 0.21

Question: Which results are given for `COC(=O)/C=C/c1cccc(N(Cc2ccc(-c3cccc(OC(F)(F)F)c3)cc2)C(=O)C2CCCCC2)c1` [Compound 253]?
Answer: EC50 (Tables 1-15): 420 nM; RE (Tables 1-15): 0.84

Question: For `COC(=O)/C=C/c1cccc(N(Cc2ccc(-c3cccc(OC(F)(F)F)c3)cc2)C(=O)C(C)C)c1` [Compound 254], which EC50 (Tables 1-15) is on record?
Answer: 247 nM

Question: What about the RE (Tables 1-15) of the same compound?
Answer: 0.59

Question: How did the EC50 (Tables 1-15) turn out when `COC(=O)/C=C/c1cccc(N(Cc2ccc(-c3cccc(OC(F)(F)F)c3)cc2)C(=O)NC(C)C)c1` [Compound 255] was run?
Answer: > 10000 nM

Question: And the RE (Tables 1-15)?
Answer: 0.09
